Test results as given in US10624968B2, “Compounds for treating cancer” (Bicycle Therapeutics Limited, priority 2017, dated 2020).
pKd: −log10 of the molar value. Starred links: 1 amine or outer side, 2 acyl side, 3 side chain; linkers in the order of their positions; H or OH if unused. Positions of bridges follow the written chain, without caps; N, C: chain ends. Non-standard residues stand in square brackets, D forms with d. Residues, ends and D or L forms follow the SMILES beside them. ξ: configuration not given here. *: point of attachment. X3 = COc1cc2cc(c1Cl)N(C)C(=O)C[C@H](OC(=O)[C@H](C)N(C)C(=O)CCSCc1ccc(N*)cc1)[C@]1(C)O[C@H]1[C@H](C)[C@@H]1C[C@@](O)(NC(=O)O1)[C@H](OC)/C=C/C=C(\C)C2; X4 = COc1cc2cc(c1Cl)N(C)C(=O)C[C@H](OC(=O)[C@H](C)N(C)C(=O)CCN(C)*)[C@]1(C)O[C@H]1[C@H](C)[C@@H]1C[C@@](O)(NC(=O)O1)[C@H](OC)/C=C/C=C(\C)C2; 1Nal = N[C@@H](Cc1cccc2ccccc12)C(=O)O; TBMB = c1c(C[*:1])cc(C[*:3])cc1C[*:2]; PABC = O=C(OCc1ccc(N[*:1])cc1)[*:2]; Glutaryl = O=C(CCCC(=O)[*:2])[*:1]; ξ1Nal = NC(Cc1cccc2ccccc12)C(=O)O; Cit = NC(=O)NCCC[C@H](N)C(=O)O; Tle = CC(C)(C)[C@H](N)C(=O)O; ξY = NC(Cc1ccc(O)cc1)C(=O)O; ξTle = CC(C)(C)C(N)C(=O)O; ξF = NC(Cc1ccccc1)C(=O)O; ξE = NC(CCC(=O)O)C(=O)O; ξD = NC(CC(=O)O)C(=O)O; ξN = NC(=O)CC(N)C(=O)O; ξC = NC(CS)C(=O)O; βAla = NCCC(=O)O; ξA = CC(N)C(=O)O; Sar = CNCC(=O)O

Legend:
[1] = test system: MT1-positive tumor xenografts; settings: mouse, in vivo, iv
MT1-MMP = MT1-MMP (Homo sapiens, UniProt P50281); test: MT1-MMP fluorescent polarization competition; assay type: binding; settings: up to 20 μM
LU-01-0486 PDX = test: Efficacy in MT1-MMP low-expressing LU-01-0486 NSCLC PDX model; assay type: in vivo, mouse; settings: dose not given
Protocol: The objective of this study was to evaluate the in vivo anti-tumor efficacy of I-1a in the treatment of MT1-MMP low-expressing LU-01-0486 PDX model in female Balb/C nude mice
Each mouse was inoculated subcutaneously at the right flank with LU-01-0486 of tumor fragment (30 mm^3) for tumor development. The treatments was started when the average tumor volume reaches 164 mm^3.
The major endpoint was to see if the tumor growth could be delayed or mice could be cured. Tumor size was measured two times weekly in two dimensions using a caliper, and the volume was expressed in mm^3 using the formula: V=0.5 a×b^2 where a and b are the long and short diameters of the tumor, respectively. […]
TGI was calculated for each group using the formula: TGI (%)=[1−(Ti−T0)/(Vi−V0)]×100; Ti is the average tumor volume of a treatment group on a given day, T0 is the average tumor volume of the treatment group on the day of treatment start, Vi is the average tumor volume of the vehicle control group on the same day with Ti, and V0 is the average tumor volume of the vehicle group on the day of treatment start.
A one-way ANOVA was performed to compare tumor volume among groups, and when a significant F-statistics (a ratio of treatment variance to the error variance) was obtained, comparisons between groups were carried out with Games-Howell test. All data were analyzed using Prism. […]

[2] = Tolerability (body weight) in LU-01-0486 NSCLC PDX model; assay type: in vivo, mouse; settings: dose not given; humane sacrifice of animals at day 24
Protocol: (§1) All the procedures related to animal handling, care and the treatment in the study were performed following the guidance of the Association for Assessment and Accreditation of Laboratory Animal Care (AAALAC). At the time of routine monitoring, the animals were daily checked for any effects of tumor growth and treatments on normal behavior such as mobility, food and water consumption (by looking only), body weight gain/loss (body weights were measured twice weekly), eye/hair matting and any other abnormal effect as stated in the protocol. Death and observed clinical signs were recorded on the basis of the numbers of animals within each subset.

hemopexin domain of MT1 = hemopexin domain of MT1 (Homo sapiens, UniProt P50281); test: Bicycle peptide binding to hemopexin domain of MT1; settings: read-out: apparent Kd
catalytic domain of MT1 = test: Bicycle peptide binding to catalytic domain
MMP15 = MMP15 (Homo sapiens, UniProt P51511); test: Binding to related MMP family members
MMP16 = MMP16 (Homo sapiens, UniProt P51512); test: Binding to related MMP family members
MMP24 = MMP24 (Homo sapiens, UniProt Q9Y5R2); test: Binding to related MMP family members
MMP1 [3] = molecular target: T1, MMP1 (Homo sapiens, UniProt P03956); test: Binding to related MMP family members
Pro-MMP1 = molecular target: T2, Pro-MMP1 (Homo sapiens, UniProt P03956); test: Binding to related MMP family members
T2 construct: (MMP15, MMP16, MMP24, MMP1, Pro-MMP1, MMP2)

MMP2 [4] = molecular target: T3, MMP2 (Homo sapiens, UniProt P08253); test: Binding to related MMP family members
MT1 = MT1 (Homo sapiens, UniProt P50281); test: Effect on catalytic activity of the protease in vitro; assay type: biochemical
MMP1 [5] = molecular target: T1, MMP1; test: Effect on related MMP catalytic activity; assay type: biochemical
MMP2 [6] = molecular target: T3, MMP2; test: Effect on related MMP catalytic activity; assay type: biochemical
MMP9 = MMP9 (Homo sapiens, UniProt P14780); test: Effect on related MMP catalytic activity; assay type: biochemical
[7] = test system: cell migration or invasion; test: Effect on cell migration or invasion; assay type: cell-based
[8] = Mortality, morbidity and body weight in HT1080 xenograft study (Example 13); assay type: in vivo, mouse
Protocol: as §1, with “every day),” for “twice weekly),”
Body weight was monitored regularly as an indirect measure of toxicity.

T3 sequence (P08253 110-660, species assumed): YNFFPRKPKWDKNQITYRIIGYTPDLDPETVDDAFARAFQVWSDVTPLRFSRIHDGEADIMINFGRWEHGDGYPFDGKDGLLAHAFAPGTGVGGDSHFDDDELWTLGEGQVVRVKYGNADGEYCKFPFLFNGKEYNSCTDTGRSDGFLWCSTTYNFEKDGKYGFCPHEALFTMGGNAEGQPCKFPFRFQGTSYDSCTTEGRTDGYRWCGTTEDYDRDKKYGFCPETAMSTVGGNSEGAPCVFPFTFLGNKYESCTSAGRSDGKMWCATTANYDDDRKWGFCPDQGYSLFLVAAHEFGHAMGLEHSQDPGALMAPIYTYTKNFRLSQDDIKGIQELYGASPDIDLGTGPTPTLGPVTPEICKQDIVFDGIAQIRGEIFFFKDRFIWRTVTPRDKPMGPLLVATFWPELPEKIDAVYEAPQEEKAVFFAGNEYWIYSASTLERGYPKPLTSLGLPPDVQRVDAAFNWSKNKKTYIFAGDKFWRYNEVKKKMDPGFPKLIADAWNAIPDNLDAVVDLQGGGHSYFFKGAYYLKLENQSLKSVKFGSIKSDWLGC
T1 sequence (P03956 100-469, species assumed): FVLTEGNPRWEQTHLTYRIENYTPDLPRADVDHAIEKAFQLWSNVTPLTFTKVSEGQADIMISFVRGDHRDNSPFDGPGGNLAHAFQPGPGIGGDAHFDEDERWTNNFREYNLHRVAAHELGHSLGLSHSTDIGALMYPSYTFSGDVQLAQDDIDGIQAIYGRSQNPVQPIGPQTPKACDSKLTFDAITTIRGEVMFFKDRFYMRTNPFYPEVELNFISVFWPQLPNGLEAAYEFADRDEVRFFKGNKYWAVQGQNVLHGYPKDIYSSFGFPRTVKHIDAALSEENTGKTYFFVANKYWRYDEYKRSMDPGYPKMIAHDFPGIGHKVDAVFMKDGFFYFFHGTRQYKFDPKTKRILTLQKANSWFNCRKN
MMP24, sequence (Q9Y5R2 156-645, species assumed): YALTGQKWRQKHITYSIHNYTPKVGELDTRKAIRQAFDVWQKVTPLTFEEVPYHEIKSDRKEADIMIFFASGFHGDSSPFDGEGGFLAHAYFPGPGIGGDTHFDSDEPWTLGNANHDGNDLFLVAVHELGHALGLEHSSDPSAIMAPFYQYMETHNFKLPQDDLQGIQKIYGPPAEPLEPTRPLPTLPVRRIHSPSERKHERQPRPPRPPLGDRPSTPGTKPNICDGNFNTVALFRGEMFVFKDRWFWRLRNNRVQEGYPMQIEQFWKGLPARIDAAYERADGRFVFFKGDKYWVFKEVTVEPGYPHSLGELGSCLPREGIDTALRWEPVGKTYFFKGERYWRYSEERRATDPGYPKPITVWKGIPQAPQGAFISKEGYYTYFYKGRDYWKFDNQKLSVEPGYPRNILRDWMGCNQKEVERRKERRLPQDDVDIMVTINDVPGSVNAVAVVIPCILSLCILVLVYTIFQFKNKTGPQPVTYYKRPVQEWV
MMP15, sequence (P51511 132-669, species assumed): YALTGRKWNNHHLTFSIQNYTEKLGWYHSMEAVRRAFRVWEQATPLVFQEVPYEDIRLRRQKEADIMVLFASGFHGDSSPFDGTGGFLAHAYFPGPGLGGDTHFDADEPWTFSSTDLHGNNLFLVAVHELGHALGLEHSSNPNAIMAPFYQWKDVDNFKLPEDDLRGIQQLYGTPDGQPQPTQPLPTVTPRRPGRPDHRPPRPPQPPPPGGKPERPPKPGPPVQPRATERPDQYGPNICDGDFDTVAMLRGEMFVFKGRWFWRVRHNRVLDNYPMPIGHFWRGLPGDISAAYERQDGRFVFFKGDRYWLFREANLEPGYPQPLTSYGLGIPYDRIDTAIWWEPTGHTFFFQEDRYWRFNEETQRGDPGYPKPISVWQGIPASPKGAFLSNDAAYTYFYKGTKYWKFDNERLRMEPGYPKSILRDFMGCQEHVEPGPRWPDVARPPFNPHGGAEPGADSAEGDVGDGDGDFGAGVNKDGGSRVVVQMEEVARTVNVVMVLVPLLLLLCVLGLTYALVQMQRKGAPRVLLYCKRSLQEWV
MMP16, sequence (P51512 120-607, species assumed): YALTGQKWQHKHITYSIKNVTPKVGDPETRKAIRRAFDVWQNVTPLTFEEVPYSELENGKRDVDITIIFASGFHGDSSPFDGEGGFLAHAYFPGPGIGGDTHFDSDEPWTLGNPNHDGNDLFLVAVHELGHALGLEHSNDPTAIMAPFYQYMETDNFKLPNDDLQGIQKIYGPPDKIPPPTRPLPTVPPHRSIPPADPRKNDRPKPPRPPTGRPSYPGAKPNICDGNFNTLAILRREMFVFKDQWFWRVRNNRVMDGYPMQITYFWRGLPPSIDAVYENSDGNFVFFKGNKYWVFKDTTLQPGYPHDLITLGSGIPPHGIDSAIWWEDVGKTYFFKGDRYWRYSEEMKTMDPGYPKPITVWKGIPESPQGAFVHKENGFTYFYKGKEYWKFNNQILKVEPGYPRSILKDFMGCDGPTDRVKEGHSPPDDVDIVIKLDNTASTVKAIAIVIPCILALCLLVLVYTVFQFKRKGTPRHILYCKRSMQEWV
T2 sequence (P03956 20-469 limits assumed): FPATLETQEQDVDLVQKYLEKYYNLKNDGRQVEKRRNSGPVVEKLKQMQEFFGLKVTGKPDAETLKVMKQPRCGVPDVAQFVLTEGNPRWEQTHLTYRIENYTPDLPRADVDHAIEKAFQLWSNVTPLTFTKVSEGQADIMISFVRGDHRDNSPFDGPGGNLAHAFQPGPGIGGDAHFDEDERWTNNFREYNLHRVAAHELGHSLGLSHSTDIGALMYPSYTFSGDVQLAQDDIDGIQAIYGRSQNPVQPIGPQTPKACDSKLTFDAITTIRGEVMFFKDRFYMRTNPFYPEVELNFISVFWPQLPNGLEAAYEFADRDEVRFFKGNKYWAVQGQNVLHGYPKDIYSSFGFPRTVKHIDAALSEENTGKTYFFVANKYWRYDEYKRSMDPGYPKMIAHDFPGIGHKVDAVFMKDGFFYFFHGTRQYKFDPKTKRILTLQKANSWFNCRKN
MMP9, sequence (P14780 94-707, species assumed): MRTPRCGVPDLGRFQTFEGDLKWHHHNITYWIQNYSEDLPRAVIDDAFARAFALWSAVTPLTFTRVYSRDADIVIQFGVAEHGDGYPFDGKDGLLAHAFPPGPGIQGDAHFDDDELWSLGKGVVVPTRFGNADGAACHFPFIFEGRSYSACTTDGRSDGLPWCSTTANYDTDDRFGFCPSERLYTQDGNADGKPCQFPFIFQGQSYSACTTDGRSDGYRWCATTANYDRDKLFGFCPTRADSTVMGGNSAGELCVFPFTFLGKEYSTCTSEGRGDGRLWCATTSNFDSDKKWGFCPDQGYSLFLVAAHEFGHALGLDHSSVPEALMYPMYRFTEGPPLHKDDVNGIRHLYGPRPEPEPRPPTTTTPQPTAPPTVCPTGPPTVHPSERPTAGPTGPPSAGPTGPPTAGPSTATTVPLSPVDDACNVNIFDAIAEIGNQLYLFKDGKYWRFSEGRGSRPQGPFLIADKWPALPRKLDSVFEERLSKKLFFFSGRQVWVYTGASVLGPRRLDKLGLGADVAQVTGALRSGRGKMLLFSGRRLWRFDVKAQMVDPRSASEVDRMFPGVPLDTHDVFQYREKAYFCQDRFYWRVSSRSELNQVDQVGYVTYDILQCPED

In the case of `C[C@H](NC(=O)CN(C)C(=O)CN(C)C(=O)CN(C)C(=O)CN(C)C(=O)CN(C)C(=O)CN(C)C(=O)CN(C)C(=O)CN(C)C(=O)CN(C)C(=O)CN(C)C(=O)CCN)C(=O)N[C@H]1CSCc2cc3cc(c2)CSC[C@H](NC(=O)[C@@H](C)NC(=O)[C@H](Cc2cccc4ccccc24)NC(=O)[C@H](CCC(=O)O)NC(=O)[C@H](CC(N)=O)NC(=O)[C@@H](C)NC1=O)C(=O)N[C@@H](CCC(=O)O)C(=O)N[C@@H](CC(=O)O)C(=O)N[C@@H](Cc1ccccc1)C(=O)N[C@@H](Cc1ccc(O)cc1)C(=O)N[C@@H](CC(=O)O)C(=O)N[C@@H](C(C)(C)C)C(=O)N[C@H](C(N)=O)CSC3` [^177Lu-loaded N241, metal not drawn] (H-[βAla][Sar][Sar][Sar][Sar][Sar][Sar][Sar][Sar][Sar][Sar]AC[dA]NE[1Nal][dA]CEDFYD[Tle]C-NH2; linker 13-19-26 via TBMB; N-terminus and C-terminus assumed), the “tumor localization (in words)” value [1] was “rapid tumor localization”.

For “(B-Ala)-Sar10-ACVPCADFPIWYC (SEQ ID NO: 17) (AXXXXXXXXXXACVPCADFPIWYC; not fully specified; N-methyl; non-natural residues) [non-binding peptide]”, the “inhibition in MT1-MMP fluorescent polarization competition” value (MT1-MMP) was “no inhibition”.

In the case of `CC(=O)O[C@@]12CO[C@@H]1C[C@H](O)[C@@]1(C)C(=O)[C@H](O)C3=C(C)[C@@H](OC(=O)[C@H](O)[C@@H](NC(=O)OC(C)(C)C)c4ccccc4)C[C@@](O)([C@@H](OC(=O)c4ccccc4)[C@H]21)C3(C)C` [Docetaxel], the “inhibition of tumor growth (in words)” value (LU-01-0486 PDX) was “significant inhibition of tumor growth” and the “effect on body weight (in words)” value [2] was “severe weight loss”.

For `C[C@H](NC(=O)CN(C)C(=O)CN(C)C(=O)CN(C)C(=O)CN(C)C(=O)CN(C)C(=O)CN(C)C(=O)CN(C)C(=O)CN(C)C(=O)CN(C)C(=O)CN(C)C(=O)CCN)C(=O)N[C@H]1CSCc2cc3cc(c2)CSC[C@H](NC(=O)[C@@H](C)NC(=O)[C@H](Cc2cccc4ccccc24)NC(=O)[C@H](CCC(=O)O)NC(=O)[C@H](CC(N)=O)NC(=O)[C@@H](C)NC1=O)C(=O)N[C@@H](CCC(=O)O)C(=O)N[C@@H](CC(=O)O)C(=O)N[C@@H](Cc1ccccc1)C(=O)N[C@@H](Cc1ccc(O)cc1)C(=O)N[C@@H](CC(=O)O)C(=O)N[C@@H](C(C)(C)C)C(=O)N[C@H](C(N)=O)CSC3` [Compound N241] (H-[βAla][Sar][Sar][Sar][Sar][Sar][Sar][Sar][Sar][Sar][Sar]AC[dA]NE[1Nal][dA]CEDFYD[Tle]C-NH2; linker 13-19-26 via TBMB; N-terminus and C-terminus assumed), the pKd (hemopexin domain of MT1) was about 8.70, the “binding (in words)” value (catalytic domain of MT1) was “no binding” and the “binding (in words)” value (MMP15) was “no binding”. For the same compound, the “binding (in words)” value (MMP16) was “no binding”, the “binding (in words)” value (MMP24) was “no binding” and the “binding (in words)” value (MMP1 [3]) was “no binding”. For the same compound, the “binding (in words)” value (Pro-MMP1) was “no binding”, the “binding (in words)” value (MMP2 [4]) was “no binding” and the “impact on catalytic activity (in words)” value (MT1) was “no direct impact”. The “impact on catalytic activity (in words)” value (MMP1 [5]) was “no direct impact”, the “impact on catalytic activity (in words)” value (MMP2 [6]) was “no direct impact” and the “impact on catalytic activity (in words)” value (MMP9) was “no direct impact”. For the same compound, the “impact on cell migration or invasion (in words)” value [7] was “no direct impact”.

With `COc1cc2cc(c1Cl)N(C)C(=O)C[C@H](OC(=O)[C@H](C)N(C)C(=O)CCSCc1ccc(NC(=O)[C@H](CCCNC(N)=O)NC(=O)[C@@H](NC(=O)CCCC(=O)NCCC(=O)N(C)CC(=O)N(C)CC(=O)N(C)CC(=O)N(C)CC(=O)N(C)CC(=O)N(C)CC(=O)N(C)CC(=O)N(C)CC(=O)N(C)CC(=O)N(C)CC(=O)NC(C)C(=O)NC3CSCc4cc5cc(c4)CSCC(NC(=O)C(C)NC(=O)C(Cc4cccc6ccccc46)NC(=O)C(CCC(=O)O)NC(=O)C(CC(N)=O)NC(=O)C(C)NC3=O)C(=O)NC(C)C(=O)NC(CC(=O)O)C(=O)NC(Cc3ccccc3)C(=O)NC(Cc3ccc(O)cc3)C(=O)NC(CC(=O)O)C(=O)NC(C(C)(C)C)C(=O)NC(C(N)=O)CSC5)C(C)C)cc1)[C@]1(C)O[C@H]1[C@H](C)[C@@H]1C[C@@](O)(NC(=O)O1)[C@H](OC)/C=C/C=C(\C)C2` (stereo partly drawn) [Compound I-7] ({X3-Cit-Val-Glutaryl-βAla}-[Sar][Sar][Sar][Sar][Sar][Sar][Sar][Sar][Sar][Sar][ξA][ξC][ξA][ξN][ξE][ξ1Nal][ξA][ξC][ξA][ξD][ξF][ξY][ξD][ξTle][ξC]-NH2; linker 12-18-25 via TBMB) the “mice died during the dosing period” value ([8]; 10 mg/kg biw) was 2/3.

For `COc1cc2cc(c1Cl)N(C)C(=O)C[C@H](OC(=O)[C@H](C)N(C)C(=O)CCN(C)C(=O)OCc1ccc(NC(=O)[C@H](CCCNC(N)=O)NC(=O)[C@@H](NC(=O)CCCC(=O)NCCC(=O)N(C)CC(=O)N(C)CC(=O)N(C)CC(=O)N(C)CC(=O)N(C)CC(=O)N(C)CC(=O)N(C)CC(=O)N(C)CC(=O)N(C)CC(=O)N(C)CC(=O)NC(C)C(=O)NC3CSCc4cc5cc(c4)CSCC(NC(=O)C(C)NC(=O)C(Cc4cccc6ccccc46)NC(=O)C(CCC(=O)O)NC(=O)C(CC(N)=O)NC(=O)C(C)NC3=O)C(=O)NC(C)C(=O)NC(CC(=O)O)C(=O)NC(Cc3ccccc3)C(=O)NC(Cc3ccc(O)cc3)C(=O)NC(CC(=O)O)C(=O)NC(C(C)(C)C)C(=O)NC(C(N)=O)CSC5)C(C)C)cc1)[C@]1(C)O[C@H]1[C@H](C)[C@@H]1C[C@@](O)(NC(=O)O1)[C@H](OC)/C=C/C=C(\C)C2` (stereo partly drawn) [Compound I-8] ({X4-PABC-Cit-Val-Glutaryl-βAla}-[Sar][Sar][Sar][Sar][Sar][Sar][Sar][Sar][Sar][Sar][ξA][ξC][ξA][ξN][ξE][ξ1Nal][ξA][ξC][ξA][ξD][ξF][ξY][ξD][ξTle][ξC]-NH2; linker 12-18-25 via TBMB), the “mouse with severe tumor ulceration” value ([8]; 1 mg/kg biw) was 1/3 and the “mouse died at day 14” value ([8]; 3 mg/kg biw) was 1/3.
